Source: patent US6821442B1, “Method and apparatus for control of aquatic vertebrate and invertebrate invasive species” (priority 2002, dated 2004)
In brackets after ≈: the same amount, converted by molar mass. Read-outs that look alike come from different tables or passages of the source.

Columns and labels:
[1] = system: Asian clams; details: cited from earlier work
[2] = system: zebra mussels; details: 25° C., cited from earlier work
[3] = system: Asian clam (Corbicula fluminea); assay: LT50 of Asian clam exposed to supersaturated gas, standard laboratory methods (APHA 1995); type: in vivo
Text: Gas supersaturation (ΔP>0) with CO2, air or combustion off-gas is established and maintained for a time period shown to cause a selected mortality rate within the population of the target species. We have established LT50 values (LT50 is defined as the time to kill 50 per cent of a targeted species) for the Asian clam (Corbicula fluminea) exposed to elevated concentrations of carbon dioxide and a simulated combustion gas mixture ([…]; N2=85.7%; CO2=13.6%; SO2=0.284%). The LT50 values were established using standard laboratory methods (APHA 1995). With carbon dioxide exposure, LT50 was described by the model (R^2=0.86):
LT50 values decreased from a high of 270 min at 260 mm Hg PCO2 to a low of 90 min at 2070 mm Hg gage pressure. This later value represents a 27 fold decrease in LT50 below that established by McMahon et al (1995) at a PCO2 of 760 mm Hg (absolute pressure). Combustion gas requires longer exposure periods given a lower XCO2. The LT50 at a operating pressure of 2070 mm Hg is about 350 min. […] Lower levels of LT50 are anticipated for fish and other aquatic exotics of concern.

[4] = system: zebra mussels; details: cited from earlier work

Question: For O=C=O [carbon dioxide], which concentration causing toxicity [1] is on record?
Answer: 500 mg/L

Question: What about the “concentration inducing a narcotizing effect” value [1] of the same molecule?
Answer: 100 mg/L

Question: What about the LT50 ([2]; PCO2 75 torr, zebra mussels) of the same molecule?
Answer: 78 h

Question: And the mortality ([2]; PCO2 75 torr, zebra mussels)?
Answer: complete mortality

Question: What about the “effect on byssal threads” value ([2]; PCO2 of 38 torr) of the same molecule?
Answer: detachment of byssal threads and inhibition of byssal thread formation

Question: And the LT50 ([3]; 260 mm Hg PCO2, Asian clam)?
Answer: 270 min

Question: And the “fold decrease in LT50 below that of McMahon et al at PCO2 760 mm Hg (absolute pressure)” value ([3]; 2070 mm Hg gage pressure)?
Answer: 27 fold

Question: And the LT50 ([3]; 2070 mm Hg gage pressure, Asian clam)?
Answer: 90 min

Question: What about the LC50 ([4]; 48 h, 18° C.) of the same molecule?
Answer: 196 µg/mL (≈ 4.45 mM)

Question: What about the LC50 ([4]; 48 h, 22° C.) of the same molecule?
Answer: 290 µg/mL (≈ 6.59 mM)

Question: What about the LC50 ([4]; 96 h, 18° C.) of the same molecule?
Answer: 74 µg/mL (≈ 1.68 mM)

Question: And the LC50 ([4]; 96 h, 22° C.)?
Answer: 81 µg/mL (≈ 1.84 mM)

Question: What about the “exposure period after which sub-lethal narcotizing effects (gaping response) were induced” value [4] of the same molecule?
Answer: 4 h
